Source: the NIST ThermoML archive (doi:10.1021/acs.jced.6b00430)
Numbers after ± are expanded uncertainties.

What was measured:
[1] = 100 kPa, Liquid; for viscosity: Concentric cylinders viscometry; for mass density: Vibrating tube method
[2] = xn = mol fraction of the nth substance listed; details: 100 kPa, Liquid, x2 = 0; for mass density: Vibrating tube method

| SMILES | viscosity ([1]; 298.15 K) [mPa·s] | viscosity ([1]; 308.15 K) [mPa·s] | viscosity ([1]; 318.15 K) [mPa·s] | viscosity ([1]; 328.15 K) [mPa·s] | mass density ([1]; 328.15 K) [kg/m3] | viscosity ([1]; 338.15 K) [mPa·s] | mass density ([1]; 338.15 K) [kg/m3] | mass density ([2]; 328.15 K) [kg/m3] | mass density ([2]; 338.15 K) [kg/m3] | other results |
| --- | --- | --- | --- | --- | --- | --- | --- | --- | --- | --- |
| CN(C)C=O [dimethylformamide] | 0.783 ± 0.047 | 0.699 ± 0.042 | 0.623 ± 0.038 | 0.555 ± 0.034 | 915.06 ± 10 | 0.495 ± 0.03 | 905.35 ± 10 | – | – | mass density ([1]; 298.15 K): 943.92 ± 10 kg/m3; mass density ([1]; 308.15 K): 934.35 ± 10 kg/m3; mass density ([1]; 318.15 K): 924.72 ± 10 kg/m3; mass density ([1]; 348.15 K): 895.57 ± 10 kg/m3 |
| CN(C)C=O [dimethylformamide] + O=[PH](O)O | – | – | – | – | – | – | – | 915.06 ± 10 | 905.35 ± 10 | viscosity ([2]; 298.15 K, Concentric cylinders viscometry): 0.783 ± 0.047 mPa·s; mass density ([2]; 298.15 K): 943.92 ± 10 kg/m3; viscosity ([2]; 308.15 K, Concentric cylinders viscometry): 0.699 ± 0.042 mPa·s; mass density ([2]; 308.15 K): 934.35 ± 10 kg/m3; viscosity ([2]; 318.15 K, Concentric cylinders viscometry): 0.623 ± 0.038 mPa·s; mass density ([2]; 318.15 K): 924.72 ± 10 kg/m3; viscosity ([2]; 328.15 K, Concentric cylinders viscometry): 0.555 ± 0.034 mPa·s; viscosity ([2]; 338.15 K, Concentric cylinders viscometry): 0.495 ± 0.03 mPa·s; mass density ([2]; 348.15 K): 895.57 ± 10 kg/m3 |
| O [water] | 0.89 ± 0.054 | 0.719 ± 0.044 | 0.596 ± 0.036 | 0.504 ± 0.031 | 985.69 ± 10 | 0.434 ± 0.026 | 980.55 ± 10 | – | – | – |
| O [water] + O=[PH](O)O | – | – | – | – | – | – | – | 985.69 ± 10 | 980.55 ± 10 | viscosity ([2]; 298.15 K, Capillary tube (Ostwald / Ubbelohde) method): 0.89 ± 0.054 mPa·s; viscosity ([2]; 308.15 K, Capillary tube (Ostwald / Ubbelohde) method): 0.719 ± 0.043 mPa·s; viscosity ([2]; 318.15 K, Capillary tube (Ostwald / Ubbelohde) method): 0.596 ± 0.036 mPa·s; viscosity ([2]; 328.15 K, Capillary tube (Ostwald / Ubbelohde) method): 0.504 ± 0.03 mPa·s; viscosity ([2]; 338.15 K, Capillary tube (Ostwald / Ubbelohde) method): 0.434 ± 0.026 mPa·s |
